Assay results taken from patent US7282340B2, “Methods for identifying an analog that promotes nerve regeneration” (Oregon Health Sciences University, priority 1997, dated 2007).
“And” between values parts separate entries of the source, which are not always exact repeats. Equal entries are not always repeated. Marks after values point to notes of the source that are not given here.

Experiments:
rat sciatic nerve [1] = conditions: cited from earlier work
soleus nerve = assay: Electron microscopic morphometry of axonal areas in soleus nerve after sciatic nerve crush; type: in vivo, Sprague-Dawley rats
Description: (§1) Animals and surgical procedure. Ten six-week-old Sprague-Dawley rats were anesthetized with 2% halothane, the right sciatic nerve exposed, and the nerve crushed twice (for a total of 30 sec using a No. 7 Dumont jeweler's forceps) at the level of the hip. The crush site was marked by tying a sterile 9-0 suture through the perineurial sheath.
Preparation and administration of V-10,367. V-10,367-HCl (molecular weight, 639.18) was dissolved in vehicle comprising 40% propylene glycol:10% ethanol:50% water. Fresh solutions were prepared at the time of each injection. Three rats received subcutaneous injections (200 mg/kg) every 12 hours (beginning immediately after the nerve crush; totaling 400 mg/kg/day) in the back of the neck using a 25 g needle. Control animals (n=3) received injections every 12 hours of vehicle only. An additional control group (n=3) received daily injections of saline. […]
Electron microscopic analysis of axons. […] Axonal areas of both myelinated and unmyelinated fibers were determined by tracing the axolemma using a Houston Instrument HI-PAD digitizing tablet connected to an IBM XT computer with appropriate software (Bioquant IV, R&M biometrics, Nashville, Tenn.). […] For each group (i.e., 400 and 200 mg/kg/day V-10,367-treated and vehicle-treated), mean values and standard areas were calculated for the whole population of axons. […]

rat sciatic nerve [2] = assay: Functional recovery after sciatic nerve crush; type: in vivo, Sprague-Dawley rats
Description: as §1
(§2) Preparation and administration of V-10,367. V-10,367-HCl (molecular weight, 639.18) was dissolved in vehicle comprising 40% propylene glycol:10% ethanol:50% water. Fresh solutions were prepared at the time of each injection. Three rats received subcutaneous injections (200 mg/kg) every 12 hours (beginning immediately after the nerve crush; totaling 400 mg/kg/day) in the back of the neck using a 25 g needle. Control animals (n=3) received injections every 12 hours of vehicle only. An additional control group (n=3) received daily injections of saline. Animals were weighed daily and the weights plotted over the 18-day period of the study.
Two separate additional studies were performed. In the first study, three axotomized rats received a single daily subcutaneous injection (200 mg/kg) as above. In the second study, V-10,367 was delivered as to axotomized rats as a continuous infusion. Osmotic pumps (Alza, Palo Alto, Calif.) model 2ML2 filled with V-10,367-HCl (200 mg/ml) or vehicle (two per group) were implanted under the skin on the left side of the animal.
Behavioral assessment. Functional recovery was assessed in FK506-treated animals used for morphological study only. Animals were examined blindly by two investigators daily until the day of perfusion (18 days). […] To obtain records during walking, the hind feet were marked with tempera paint and the animals allowed to freely walk across a sheet of paper between 14-18 days. Toe spread during walking was defined as the distance between the first and fifth digits, measured to the nearest 0.5 mm; three foot prints were analyzed from each animal. This analysis represents a reliable and reproducible index of functional recovery which, unlike the sciatic nerve function index, is not influenced by how fast the animal walks (Walker et al., Restor. Neurol. Neurosci. 6:189-193, 1994).

[3] = system: SH-SY5Y human neuroblastoma cells; assay: Neurite outgrowth (neurite length) in NGF-treated SH-SY5Y cells; type: cell-based; conditions: for Mean neurite length: mean ± SEM
Description: Cell cultures. SH-SY5Y human neuroblastoma cells were maintained in DMEM medium (GIBCO) supplemented with 10% fetal calf serum (SIGMA), 50 IU>mL penicillin, and […] streptomycin (GIBCO) at 37° C. in 7% CO^2. Cells were plated in six-well plates at 1×10^6 cells/well and treated with […] aphidicolin (SIGMA). At five days, cells were washed, treated with nerve growth factor (NGF) (Boehringer Mannheim, Indianapolis, Ind.) at 10 ng/mL (to induce process outgrowth) in the presence or absence of V-10,367 (1, 10, or 100 nM) (Armistead et al., Acta Cryst., D51:522-528, 1995; FIG. 1). Media was changed at 96 hours and replaced with fresh media with or without the compounds (NGF and V-10,367) for an additional 72 hours (total time, 168 hours). All experiments were run in duplicate wells and repeated at least twice for reproducibility.
Light morphometry of neurite lengths. […] Neurite lengths were measured on photographic prints using a Houston Instrument HI-PAD digitizing tablet connected to an IBM XT computer with appropriate software (Bioquant IV, R&M Biometrics, Nashville, Tenn.); only those processes greater than two times the cell body length were measured. Data from identically treated wells were not different and were therefore combined. […] Histograms were compared using a Mann-Whitney U test, which makes no assumptions about the shape of the distribution.

[4] = Single-dose pharmacokinetics in the rat; type: in vivo, Sprague-Dawley rat
Description: Pharmacokinetics of V-10,367. To determine the appropriate daily dose of V-10,367 for administration to rats, single-dose pharmacokinetics of V-10,367 were evaluated in the rat following intravenous and subcutaneous dosing. […] Since these concentrations were sufficiently above the 10 nM concentration needed to cause neurite extension in vitro, a subcutaneous dose of 200 mg/kg twice daily was selected for subsequent experiments.

FKBP-12 = FKBP-12 (Homo sapiens, UniProt P62942); assay: FKBP-12 inhibition; type: biochemical
Chain of FKBP-12 (P62942 whole entry, species assumed): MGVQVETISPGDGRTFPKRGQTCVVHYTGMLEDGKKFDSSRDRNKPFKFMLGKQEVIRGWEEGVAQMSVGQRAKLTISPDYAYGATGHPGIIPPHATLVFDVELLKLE
Excerpt: Assays for inhibition of FKBP-12 rotamase activity are described in Harding et al. (Nature 341:758-760, 1989), Siekierka et al., Nature 341:755-757, 1989, and U.S. Pat. No. 5,654,332, for example. Chymotrypsin is able to cleave p-nitroanilide from the trans form of the artificial substrate N-succinyl-Ala-Ala-Pro-Phe-p-nitroanilide, but not from the cis form. The assays of Harding et al. and Siekierka et al. employ a reaction mixture that includes the cis form of N-succinyl-Ala-Ala-Pro-Phe-p-nitroanilide, FKBP-12, a test compound, and chymotrypsin, and spectrophotometrically measure the release of p-nitroanilide as a result of isomerization of the substrate.

[5] = rat, in vivo, sc, 400 mg/kg/day
Description: as §2

[6] = continuous infusion 18 days via osmotic minipump
[7] = single intravenous dose 17.7 mg/kg
[8] = subcutaneous injection 174 mg/kg

In the case of `CC[C@@H]1/C=C(\C)[C@@H](O)[C@H](C)C[C@H](OC)[C@H]2O[C@@](O)(C(=O)C(=O)N3CCCC[C@H]3C(=O)O[C@H](/C(C)=C/[C@@H]3CC[C@@H](O)[C@H](OC)C3)[C@H](C)[C@@H](O)CC1=O)[C@H](C)C[C@@H]2OC` [L-685,818, 18-OH, 21-ethyl-FK506], the Functional recovery (rat sciatic nerve [1]; topical administration to the nerve crush site) is given as “accelerate functional recovery”.

With `COc1cc(C(=O)C(=O)N2CCCC[C@H]2C(=O)OC(CCCc2ccccc2)CCCc2cccnc2)cc(OC)c1OC.Cl` (some centres unmarked) [V-10,367] the “Increase of mean axonal areas compared to vehicle” value (soleus nerve; 18 days after axotomy, subcutaneous injections) was 50%, the “Increase of mean axonal calibers compared to vehicle” value (soleus nerve; [6]) was 40% and the “Toe spread: distance between the first and fifth digits” value (rat sciatic nerve [2]; axotomized side, n=3, vehicle 11.0±0.58, uninjured side 19.5±0.39) was 13.0±0.41 mm. For the same compound, the “Functional recovery compared to vehicle-treated controls” value (rat sciatic nerve [2]; [6]) was “earlier functional recovery”, the “Efficacy upon oral (gavage) administration” value (rat sciatic nerve [2]; oral gavage, rat sciatic nerve crush) was “effective” and the “Days until onset of ability to right the foot and move the toes (onset)” value (rat sciatic nerve [2]; s.c. V-10,367, n=3, mean ± SEM, vehicle 15.3±0.33) was 13.7 ± 0.33 days. The “Days until ability to walk on hind feet and toes (walking)” value (rat sciatic nerve [2]; s.c. V-10,367, n=3, mean ± SEM, vehicle 16.3±0.33) was 14 ± 0 days, the Mean neurite length ([3]; 1 nM V-10,367 + NGF 10 ng/mL, 96 h) was 110 ± 2.2 μm and the Mean neurite length ([3]; 1 nM V-10,367 + NGF 10 ng/mL, 168 h) was 136 ± 5.8*^,Δ μm. For the same compound, the Mean neurite length ([3]; 10 nM V-10,367 + NGF 10 ng/mL, 96 h) was 138 ± 9.4 μm, the Mean neurite length ([3]; 10 nM V-10,367 + NGF 10 ng/mL, 168 h) was 148 ± 8.6*^,††,Δ μm and the Mean neurite length ([3]; 100 nM V-10,367 + NGF 10 ng/mL, 96 h) was 121 ± 6.0 μm. The Mean neurite length ([3]; 100 nM V-10,367 + NGF 10 ng/mL, 168 h) was 118 ± 4.2*^,† μm, the “Number of processes per cell or branching of cell processes” value ([3]; 1-100 nM with NGF 10 ng/mL) was “No change” and the “Concentration of maximal effect on neurite length” value ([3]; tested at 1, 10, 100 nM with NGF 10 ng/mL) was 10 nM. The Average blood clearance [4, 7] was 84 mL/min/kg, the Elimination half-life [4, 7] was “about 1.3 hours” and the “Volume of distribution at steady state” value [4, 7] was 2.76 L/kg. The “Average Cmax” value [4, 8] was 171 ng/mL, the Cmax [4, 8] was 285 nM and the “Trough concentrations at 8 hours post-dose” value ([4]; subcutaneous injection 174 mg/kg, 174 mg/kg) was 27-252 ng/mL and 45-420 nM. For the same compound, the “Apparent half-life following subcutaneous administration” value ([4]; subcutaneous vs intravenous) was “prolonged”, the FKBP-12 inhibition (FKBP-12) was “potent FKBP-12 inhibitor” and the Tolerability [5] was “well tolerated”.

For cyclosporin A, the “Nerve regeneration in the rat sciatic nerve following a crush injury” value (rat sciatic nerve [1]; rat, in vivo) is listed as “does not increase nerve regeneration”.
